From patent US20250144179A1, “PEPTIDE HORMONE TO PREVENT OR TREAT VASOSPASM, BRAIN INJURY OR CEREBRAL EDEMA” (UNIVERSITY OF FLORIDA RESEARCH FOUNDATION, INCORPORATED, priority 2022, published 2025)
“Also recorded” adds a separate entry of the source.

What was measured:
Assay type in all cases: in vivo, mouse
[1] = tested on: wild-type mice, SAH model; assay: Brain water content (cerebral edema) after SAH; details: 24 hours post-SAH, adropin 450 nmol/kg i.p.
Description: (§1) Synthetic adropin^34-76 peptide was supplied from Bachem (Bubendorf, Switzerland) and diluted in 0.1% BSA in saline. 0.1% BSA in saline was used as vehicle control for all experiments. Adropin (450 nmol/kg) or an equivalent volume of vehicle was delivered via intraperitoneal injection 15 minutes post-SAH. For experiments ending at 24 hours post-SAH, an identical dose of adropin/vehicle was given again 12 hours later. For experiments ending 7 days post-SAH, adropin/vehicle was given again on days 1, 3 & 5 post-SAH. In the aneurysm rupture model, adropin was given at a dose of 450 nmol/kg starting 3 days before aneurysm induction (elastase injection). Adropin was given every other day until sacrifice
SAH was modeled using the anterior circulation single autologous blood injection method^25,33 with minor adjustments. Mice were anesthetized with ketamine (100 mg/kg) and xylazine (10 mg/kg) before removing hair from scalp and cleaning with serial betadine—saline washes. The tail was also prepped from the base extending 1 cm distally. Mice were then fixed into a stereotaxic frame and body temperature maintained at 37° C. […]
Brain water content was measured using the wet weight—dry weight method.^34 Twenty-four hours post-SAH, brains were removed from the skull and the olfactory lobe and hindbrain were removed from the cortex and midbrain. […]

eNOS^−/− mice, SAH model = assay: Sensorimotor deficits (corner test) after SAH in eNOS knockout mice
Excerpt: All animal experiments were approved by IACUC (Institutional Animal Care and Use Committee) and performed in accordance with ARRIVE (Animal Research: Reporting of In Vivo Experiments) guidelines. All animals were 12-15-week-old females and were housed in pathogen-free housing with ad libitum food and water and 12-h light/dark cycling. Wild-type C57B1/6 mice were received from Charles River Labs (Wilmington, Mass.) and eNOS knockout mice were obtained from The Jackson Laboratory (Bar Harbor, Maine). eNOS knockout breeding pairs were genotyped prior to breeding and F1 progeny used for all experiments. The following primers were used for genotyping: eNOS knockout (Nos3^−/−): F-5′-[…]-3′, R-5′-[…]-3′. All animals underwent twice daily monitoring from institutional animal care services staff and/or investigators. Mice were randomized to treatment groups prior to surgical procedures.
Synthetic adropin^34-76 peptide was supplied from Bachem (Bubendorf, Switzerland) and diluted in 0.1% BSA in saline. 0.1% BSA in saline was used as vehicle control for all experiments. Adropin (450 nmol/kg) or an equivalent volume of vehicle was delivered via intraperitoneal injection 15 minutes post-SAH. For experiments ending at 24 hours post-SAH, an identical dose of adropin/vehicle was given again 12 hours later. For experiments ending 7 days post-SAH, adropin/vehicle was given again on days 1, 3 & 5 post-SAH. […]

eNOS = assay: Western blot of total eNOS and p-eNOS (Ser1179) in brain after SAH
Description: as §1
SAH was modeled using the anterior circulation single autologous blood injection method^25,33 with minor adjustments. Mice were anesthetized with ketamine (100 mg/kg) and xylazine (10 mg/kg) before removing hair from scalp and cleaning with serial betadine—saline washes. The tail was also prepped from the base extending 1 cm distally. Mice were then fixed into a stereotaxic frame and body temperature maintained at 37° C. The scalp was incised along the sagittal suture from bregma to the nasal bone. The skin was reflected and a burr hole was drilled 5.0 mm rostral of bregma and 0.5 mm right laterally to avoid puncturing dural venous sinuses. […] 50 μL of blood was drawn into a Hamilton syringe (Hamilton, Reno, Nevada) and passed through the cranial burr hole at an angle of 30° caudally until contact with the skull base (approximately 7.2 mm). The syringe was left in place for 30 seconds to allow for tissue accommodation before blood was manually injected at a rate of 10 μL/minute. After blood injection was complete, the syringe was left in place for an additional 3 minutes and then retracted slowly at a rate of 10 mm/minute. Sham surgery was the identical procedure and timing including placement of the stereotactic needle but without blood injection. After the needle and syringe were removed, the burr hole was covered and skin flap was sutured with 5-0 ethilon suture.
At 24 hours or 7 days post-SAH, mice were deeply anesthetized and perfused with 10 mL of ice-cold PBS. Brains were harvested from the skull and placed into a cold brain matrix (Harvard Apparatus, Holliston, Massachusetts). The olfactory lobe was removed, and brains were cut in half along the mid-sagittal plane. The right hemisphere was cut again 2 mm caudally from the rostral edge and the pieces of tissue were snap frozen in liquid N2. Once all tissue samples were collected, brains were homogenized with a Dounce homogenizer and incubated in radioimmunoprecipitation assay (RIPA) buffer at 4° C. for 90 minutes with constant agitation. Samples were centrifuged, supernatant collected, and protein quantified via Bradford assay. Samples were then frozen at −20° C. or used immediately. 30 μg of total protein was separated electrophoretically through a 4-15% tris-glycine gel at 90V for 60 minutes and transferred onto nitrocellulose membranes with 0.45 μm pore size. Membranes were blocked with 5% skim milk in TBST (5% BSA for phospho-eNOS blots) for 1 hours at room temperature and then probed with specified primary antibodies (Table 1) diluted in 5% skim milk (5% BSA for phospho-eNOS) overnight at 4° C. with constant agitation. […]

[2] = Mean arterial pressure in the aneurysm rupture model; details: before and after aneurysm induction, adropin vs vehicle
Description: as §1
Cerebral aneurysms were induced as previously described. Briefly, mice were anesthetized with ketamine (100 mg/kg) and xylazine (10 mg/kg) before the left common carotid artery and the right renal artery were ligated with 7-0 silk suture (Ethicon Inc., Somerville, New Jersey). Carotid and renal artery ligations are hereafter referred to as ligations. […]

MMP9 = assay: Western blot of MMP9 in brain after SAH; details: wild-type mice, adropin 450 nmol/kg i.p. vs vehicle
Description: as §1
(§2) SAH was modeled using the anterior circulation single autologous blood injection method^25,33 with minor adjustments. Mice were anesthetized with ketamine (100 mg/kg) and xylazine (10 mg/kg) before removing hair from scalp and cleaning with serial betadine—saline washes. The tail was also prepped from the base extending 1 cm distally. Mice were then fixed into a stereotaxic frame and body temperature maintained at 37° C. The scalp was incised along the sagittal suture from bregma to the nasal bone. […]
(§3) At 24 hours or 7 days post-SAH, mice were deeply anesthetized and perfused with 10 mL of ice-cold PBS. […] Samples were centrifuged, supernatant collected, and protein quantified via Bradford assay. […]

ZO-1 = assay: Western blot of ZO-1 in brain after SAH; details: wild-type mice, adropin 450 nmol/kg i.p. vs vehicle
Description: as §1, §2, §3

adropin (CHSRSADVDSLSESSPNSSPGPCPEKAPPPQKPSHEGSYLLQP) [Synthetic adropin^34-76 peptide from Bachem]
brain water content (cerebral edema) [1]: this effect was blunted by adropin treatment | sensorimotor deficits (corner test turn preference) (eNOS^−/− mice, SAH model): adropin also had no effect on sensorimotor deficits | phospho-eNOS levels (eNOS; 7 day post-SAH): adropin treatment increase phospho-eNOS levels | total eNOS (eNOS; 7 day post-SAH): slightly increased in both SAH groups; however, neither reached statistical significance | Phospho-eNOS/eNOS ratio (eNOS; 7 day post-SAH, p=0.08 vs SAH+vehicle, p=0.08 vs sham+vehicle): trended higher with adropin treatment | p-eNOS/total eNOS ratio (eNOS; one day post-SAH): no change in p-eNOS/total eNOS ratios between any groups | eNOS phosphorylation (Ser1179) (eNOS; one day post-SAH, vs SAH+vehicle): increased eNOS phosphorylation one day post-SAH | systemic blood pressure / mean arterial pressure (MAP) [2]: No difference was found in blood pressure; also recorded: no effect on MAP before or after aneurysm induction | cleaved MMP9 levels (immunoblot) (MMP9): an effect abolished by adropin treatment | ZO-1 expression (immunoblot) (ZO-1): preserved the expression of occludin and ZO-1
